According to patent publication US12447167B2, “GM-CSF-producing t-cell control agent and Th1/Th2 immune balance regulator” (National Center of Neurology and Psychiatry, priority 2014, dated 2025):

Columns and labels:
[1] = tested on: GM-CSF production from lymph node T-cells; experiment: Amount of GM-CSF in lymph node cell culture supernatants of mice after oral dose (ELISA); assay type: in vivo, C57BL/6 mice; details: for suppressive effects on GM-CSF production from lymph node T-cells: oral high dose 1 mg/kg
Description: Compound 31 was orally administered to 8-week-old C57BL/6 mice (female) by using a probe. The dose employed 15 μg/kg (low dose) of compound 31 or 1 mg/kg (high dose) of compound 31 dissolved in 200 μL of mouse drinking water. As a control, 200 μL of mouse drinking water was administered alone.
2 days or 7 days after the oral administration of compound 31, each mouse was euthanized by cervical dislocation, and axillary and inguinal lymph nodes were collected. The collected lymph nodes were disrupted on BD Falcon Cell Strainer (Becton, Dickinson and Company) having a diameter of 40 μm, PBS was added, and the resultant was recovered into a 50-mL conical tube and centrifuged at 1500 rpm for 5 minutes, and then, a supernatant was removed by suction.
The recovered cells were suspended into a single cell suspension by adding 1000 μL of an RPMI medium (Life Technologies Corp.) containing 10% FBS (Fetal Bovine Serum; Life Technologies Corp.), and then, the number of cells was measured with a counting chamber.
On the day prior to the lymph node collection from the mice after the administration, an anti-CD3 monoclonal antibody (self-produced) and an anti-CD28 antibody (Becton, Dickinson and Company) were each adjusted to 1 μg/mL with PBS, placed at 50 μL to each well of BD Falcon 96-well flat bottom plate (Becton, Dickinson and Company), and stored at 4° C. so that the plate was coated with the anti-CD3/CD28 antibodies. The prepared single cell suspension was inoculated at 5×10^5 cells/well to the plate and then cultured at 37° C. for 48 hours in a 5% CO2 incubator to perform stimulation with the anti-CD3 antibody and the anti-CD28 antibody.
A supernatant was recovered, and the concentration of GM-CS contained in the culture supernatant was measured by using an ELISA kit (OptEIA Mouse GM-CSF ELISA set; Becton, Dickinson and Company) according to the attached document.

IFN-γ = IFN-γ expression level of sorted CD4-positive memory T-cells of MS patients (ELISA of culture supernatant); assay type: in vivo, human; details: 0.3 mg single oral
Description: (§1) A single dose of compound 31, which is a synthetic glycolipid of the present invention, described in the first aspect was orally administered to each of 2 MS patients (subjects) shown in Table 2 above after obtainment of informed consent. The dose was set to 0.3 mg per person.
(§2) Subsequently, T-cell subfractions were prepared from the peripheral blood of each subject by using the density gradient centrifugation method. First, a total of 20 mL of blood was collected from the vein of each subject 24 hours (1st day), 48 hours (2nd day), 72 hours (3rd day), 168 hours (7th day), and 192 hours (8th day) after the administration of compound 31 by using two 10-mL heparin sodium-containing vacuum blood collection tubes. For a control, 20 mL of blood was similarly collected from the vein of each subject one day before the administration of compound 31.
(§3) The collected PBMCs were stained with antibodies by the following method. First, 10 μL of a solution consisting of 20 μL of MACS buffer, 0.25 μL of APC-Cy7-anti-CD3 antibody (BioLegend, Inc.), 1 μL of PB-anti-CD4 antibody (BioLegend, Inc.), 1 μL of PerCP-Cy5.5-anti-CD45RA antibody (BioLegend, Inc.), and 1 μL of PC7-anti-CD56 antibody (Beckman Coulter, Inc.) was added to 6×10^6 cells of PBMCs, thoroughly mixed by vortexing, and then left on ice for 20 minutes. CD56 is a detection marker of cells having NK activity, and CD3^−CD56^− cells indicate being antigen-presenting cells (APCs). […]
(§4) mCD4T and APC obtained by the sorting were each suspended in a medium consisting of 500 mL of RPMI1640 (GIBCO/Thermo Fisher Scientific Inc.), 5 mL of glutamine (200 mM, Wako Pure Chemical Industries, Ltd.), 5 mL of Pen/strep (10,000 U/mL, GIBCO/Thermo Fisher Scientific Inc.), 0.5 mL of 2-mercaptoethanol (GIBCO/Thermo Fisher Scientific Inc.), and 50 mL of 10% (v/v) Cellect FETAL BOVINE SERUM (MP Biomedicals, LLC), and the number of cells was measured. […]
(§5) After the culture, a culture supernatant was collected, and IFN-γ, IL-4, IL-17, and GM-CSF were measured by the ELISA method. […]

IL-17 = IL-17 expression level of sorted CD4-positive memory T-cells of MS patients (ELISA of culture supernatant); assay type: in vivo, human; details: 0.3 mg single oral
Description: as §1, §2, §3, §4, §5

For `CCCCCCCCCCCCCCCCCCCCCCCC(=O)NC(COC1OC(CO)C(O)C(O)C1O)[C@H](O)C(O)CCCCC` (stereo in doubt) [compound 31, (2S,3S,4R)-1-O-(α-D-galactosyl)-2-(N-tetracosanoylamino)-1,3,4-nonanetriol], which “suppressive effects on GM-CSF production from lymph node T-cells” value ([1]; 2nd day after administration) is on record?
Its value is “not seen”.

What about the “suppressive effects on GM-CSF production from lymph node T-cells” value ([1]; 7th day after administration) of the same molecule?
The value was “observed”.

What about the “GM-CSF production from lymph node T-cells” value ([1]; oral low dose 15 μg/kg, anti-CD3/CD28 stimulation 48 h, vs vehicle) of the same molecule?
Its value is “significantly suppressed”.

And the IFNγ expression level (IFN-γ; day 8, MBP stimulation (culture condition B), day −1 value 28528.18)?
The IFNγ expression level was 7006.30.

And the IFNγ expression level (IFN-γ; day 8, OVA stimulation (culture condition A), day −1 value 23489.34)?
Its IFNγ expression level is 5032.43.

And the “change of expression level of IFN-γ” value (IFN-γ; day8 vs day-1)?
The value was “decreased”.

And the IL-17 expression level (IL-17; day 8, MBP stimulation, day −1 value 916.90)?
Its IL-17 expression level is 491.24.

And the IL-17 expression level (IL-17; day 8, OVA stimulation, day −1 value 666.56)?
The IL-17 expression level was 158.50.

And the “change of expression level of IL-17” value (IL-17; day8 vs day-1)?
Its value is “decreased”.
